Results reported in US9133157B2, “HIV protease inhibitors” (Merck Canada Inc., priority 2011, dated 2015).

Target: WT HIV-1 protease (Human immunodeficiency virus type 1 group M subtype B (isolate HXB2) (HIV-1), UniProt P04585)
Assay: Assay for inhibition of microbial expressed HIV protease (Procedure A, peptide substrate, HPLC fluorescence detection)
Assay type: biochemical
Conditions: WT HIV-1 protease 10 pM, substrate 400 micromolar, pH 5.5, 30 min preincubation, 1 hour at 30° C.; read-out: Enzyme inhibition IC50
Method: The inhibition of WT HIV-1 protease was studied using the reaction of the protease (expressed in Eschericia coli) with a peptide substrate [Val-Ser-Gln-Asn-(betanaphthyl)Ala-Pro-Ile-Val (SEQ ID NO:1)]. Compounds were tested using Procedure A. In Procedure A, the test compound was first preincubated with the enzyme in assay buffer (50 mM sodium acetate, pH 5.5, 100 mM NaCl, and 0.1% BSA) for 30 minutes at room temperature. Substrate was then added to 400 micromolar in a total volume of 80 microliters containing 10 picomolar HIV-1 protease and the reaction was incubated for 1 hour at 30° C. The reaction was quenched with the addition of 120 microliters of 10% phosphoric acid. The product formation was determined after separation of product and substrate on a Zorbax Eclipse XDB-C18 column (Agilent Technologies, Santa Clara, Calif.) connected to an Agilent 1100 high performance liquid chromatography system with fluorescence detection (excitation 270 nanometer and emission 330 nanometer).

Row | Structure (SMILES) | IC50 [nM]
1 | COC(=O)N[C@H](C(=O)N[C@@H](C)c1ccc([C@@H](CO)N(CC(C)C)S(=O)(=O)c2ccc(N)cc2)s1)C(c1ccccc1)c1ccccc1 [Example 76, N-[(1S)-1-{5-[(1R)-1-{[(4-aminophenyl)sulfonyl](2-methylpropyl)amino}-2-hydroxyethyl]thiophen-2-yl}ethyl]-Nα-(methoxycarbonyl)-β-phenyl-L-phenylalaninamide] | 11.8
2 | COC(=O)N[C@H](C(=O)N[C@H](c1ccc([C@@H](CO)N(C(C)C)S(=O)(=O)c2ccc(N)cc2)s1)C(F)(F)F)C(c1ccccc1)c1ccccc1 [Example 77, N-[(1S)-1-{5-[(1R)-1-{[(4-aminophenyl)sulfonyl](propan-2-yl)amino}-2-hydroxyethyl]thiophen-2-yl}-2,2,2-trifluoroethyl]-Nα-(methoxycarbonyl)-β-phenyl-L-phenylalaninamide] | 23
3 | COC(=O)N[C@H](C(=O)N[C@H](c1ccc([C@@H](CO)N(C(C)C)S(=O)(=O)c2ccc3[nH]ccc3c2)s1)C(F)(F)F)C(c1ccccc1)c1ccccc1 [Example 78, Nα-(methoxycarbonyl)-β-phenyl-N-[(1S)-2,2,2-trifluoro-1-(5-{(1R)-2-hydroxy-1-[(1H-indol-5-ylsulfonyl)(propan-2-yl)amino]ethyl}thiophen-2-yl)ethyl]-L-phenylalaninamide] | 66.1
4 | COC(=O)N[C@H](C(=O)N[C@H](c1ccc([C@@H](CO)N(C(C)C)S(=O)(=O)c2ccc3cc[nH]c3c2)s1)C(F)(F)F)C(c1ccccc1)c1ccccc1 [Example 79, Nα-(methoxycarbonyl)-β-phenyl-N-[(1S)-2,2,2-trifluoro-1-(5-{(1R)-2-hydroxy-1-[(1H-indol-6-ylsulfonyl)(propan-2-yl)amino]ethyl}thiophen-2-yl)ethyl]-L-phenylalaninamide] | 12.5
5 | COC(=O)N[C@H](C(=O)N[C@H](c1ccc([C@@H](CO)N(C(C)C)S(=O)(=O)c2ccc(N)c(F)c2)s1)C(F)(F)F)C(c1ccccc1)c1ccccc1 [Example 80, N-[(1S)-1-{5-[(1R)-1-{[(4-amino-3-fluorophenyl)sulfonyl](propan-2-yl)amino}-2-hydroxyethyl]thiophen-2-yl}-2,2,2-trifluoroethyl]-Nα-(methoxycarbonyl)-β-phenyl-L-phenylalaninamide] | 30.5
6 | COC(=O)N[C@H](C(=O)N[C@H](c1ccc([C@@H](CO)N(C(C)C)S(=O)(=O)c2ccc3cn[nH]c3c2)s1)C(F)(F)F)C(c1ccccc1)c1ccccc1 [Example 81, Nα-(methoxycarbonyl)-β-phenyl-N-[(1S)-2,2,2-trifluoro-1-(5-{(1R)-2-hydroxy-1-[(1H-indazol-6-ylsulfonyl)(propan-2-yl)amino]ethyl}thiophen-2-yl)ethyl]-L-phenylalaninamide] | 74.1
7 | COC(=O)N[C@H](C(=O)N[C@H](c1ccc([C@@H](CO)N(CCC(C)C)S(=O)(=O)c2ccc(N)cc2)s1)C(F)(F)F)C(c1ccccc1)c1ccccc1 [Example 83, N-[(1S)-1-{5-[(1R)-1-{[(4-aminophenyl)sulfonyl](3-methylbutyl)amino}-2-hydroxyethyl]thiophen-2-yl}-2,2,2-trifluoroethyl]-Nα-(methoxycarbonyl)-β-phenyl-L-phenylalaninamide] | 0.3
8 | COC(=O)N[C@H](C(=O)N[C@H](c1ccc([C@@H](CO)N(CC2CC(F)(F)C2)S(=O)(=O)c2ccc(N)cc2)s1)C(F)(F)F)C(c1ccccc1)c1ccccc1 [Example 84, N-[(1S)-1-{5-[(1R)-1-{[(4-aminophenyl)sulfonyl][(3,3-difluorocyclobutyl)methyl]amino}-2-hydroxyethyl]thiophen-2-yl}-2,2,2-trifluoroethyl]-Nα-(methoxycarbonyl)-β-phenyl-L-phenylalaninamide] | 0.75
9 | COC(=O)N[C@H](C(=O)N[C@H](c1ccc([C@@H](CO)N(CCC(F)(F)F)S(=O)(=O)c2ccc(N)cc2)s1)C(F)(F)F)C(c1ccccc1)c1ccccc1 [Example 85, N-[(1S)-1-{5-[(1R)-1-{[(4-aminophenyl)sulfonyl](3,3,3-trifluoropropyl)amino}-2-hydroxyethyl]thiophen-2-yl}-2,2,2-trifluoroethyl]-Nα-(methoxycarbonyl)-β-phenyl-L-phenylalaninamide] | 0.33
10 | COC(=O)N[C@H](C(=O)N[C@H](c1ccc([C@@H](CO)N(CCC2CC2)S(=O)(=O)c2ccc(N)cc2)s1)C(F)(F)F)C(c1ccccc1)c1ccccc1 [Example 86] | 0.34
11 | COC(=O)N[C@H](C(=O)N[C@H](c1ccc([C@@H](CO)NS(=O)(=O)c2ccc(N)cc2)s1)C(F)(F)F)C(c1ccccc1)c1ccccc1 [Example 87, N-[(1S)-1-{5-[(1R)-1-{[(4-aminophenyl)sulfonyl]amino}-2-hydroxyethyl]thiophen-2-yl}-2,2,2-trifluoroethyl]-Nα-(methoxycarbonyl)-β-phenyl-L-phenylalaninamide] | 194
12 | CCCCN([C@H](CO)c1ccc([C@@H](NC(=O)[C@@H](NC(=O)OC)C(c2ccccc2)c2ccccc2)C(F)(F)F)s1)S(=O)(=O)c1ccc(N)cc1 [Example 88, N-[(1S)-1-{5-[(1R)-1-{[(4-aminophenyl)sulfonyl](butyl)amino}-2-hydroxyethyl]thiophen-2-yl}-2,2,2-trifluoroethyl]-Nα-(methoxycarbonyl)-β-phenyl-L-phenylalaninamide] | 0.33
13 | COC(=O)N[C@H](C(=O)N[C@H](c1ccc([C@@H](CO)N(CCc2ccccc2)S(=O)(=O)c2ccc(N)cc2)s1)C(F)(F)F)C(c1ccccc1)c1ccccc1 [Example 89, N-[(1S)-1-{5-[(1R)-1-{[(4-aminophenyl)sulfonyl](2-phenylethyl)amino}-2-hydroxyethyl]thiophen-2-yl}-2,2,2-trifluoroethyl]-Nα-(methoxycarbonyl)-β-phenyl-L-phenylalaninamide] | 2.6
14 | COC(=O)N[C@H](C(=O)N[C@H](c1ccc([C@@H](CO)N(CCC(C)(C)C)S(=O)(=O)c2ccc(-c3cnco3)cc2)s1)C(F)(F)F)C(c1ccccc1)c1ccccc1 [Example 90, N-[(1S)-1-(5-{(1R)-1-[(3,3-dimethylbutyl){[4-(1,3-oxazol-5-yl)phenyl]sulfonyl}amino]-2-hydroxyethyl}thiophen-2-yl)-2,2,2-trifluoroethyl]-Nα-(methoxycarbonyl)43-phenyl-L-phenylalaninamide] | 25.9
15 | COC(=O)N[C@H](C(=O)N[C@H](c1ccc([C@@H](CO)N(CCC(C)(C)C)S(=O)(=O)c2ccc3scnc3c2)s1)C(F)(F)F)C(c1ccccc1)c1ccccc1 [Example 91, N-[(1S)-1-(5-{(1R)-1-[(1,3-benzothiazol-5-ylsulfonyl)(3,3-dimethylbutyl)amino]-2-hydroxyethyl}thiophen-2-yl)-2,2,2-trifluoroethyl]-Nα-(methoxycarbonyl)-β-phenyl-L-phenylalaninamide] | 2.9
16 | COC(=O)N[C@H](C(=O)N[C@H](c1ccc([C@@H](CO)N(CCC(C)(C)C)S(=O)(=O)c2ccc(-c3ccn(C)n3)cc2)s1)C(F)(F)F)C(c1ccccc1)c1ccccc1 [Example 92] | 66.6
17 | COC(=O)N[C@H](C(=O)N[C@H](c1ccc([C@@H](CO)N(CCC(C)(C)C)S(=O)(=O)c2ccc3[nH]ncc3c2)s1)C(F)(F)F)C(c1ccccc1)c1ccccc1 [Example 93, N-[(1S)-1-(5-{(1R)-1-[(3,3-dimethylbutyl)(1H-indazol-5-ylsulfonyl)amino]-2-hydroxyethyl}thiophen-2-yl)-2,2,2-trifluoroethyl]-Nα-(methoxycarbonyl)-β-phenyl-L-phenylalaninamide] | 0.31
18 | COC(=O)N[C@H](C(=O)N[C@H](c1ccc([C@@H](CO)N(CCC(C)(C)C)S(=O)(=O)c2ccc3cc[nH]c3c2)s1)C(F)(F)F)C(c1ccccc1)c1ccccc1 [Example 94, N-[(1S)-1-(5-{(1R)-1-[(3,3-dimethylbutyl)(1H-indol-6-ylsulfonyl)amino]-2-hydroxyethyl}thiophen-2-yl)-2,2,2-trifluoroethyl]-Nα-(methoxycarbonyl)-β-phenyl-L-phenylalaninamide] | 0.09
19 | COC(=O)N[C@H](C(=O)N[C@H](c1ccc([C@@H](CO)N(CCC(C)(C)C)S(=O)(=O)c2cc3ccccc3s2)s1)C(F)(F)F)C(c1ccccc1)c1ccccc1 [Example 95, N-[(1S)-1-(5-{(1R)-1-[(1-benzothiophen-2-ylsulfonyl)(3,3-dimethylbutyl)amino]-2-hydroxyethyl}thiophen-2-yl)-2,2,2-trifluoroethyl]-Nα-(methoxycarbonyl)-β-phenyl-L-phenylalaninamide] | 6.95
20 | COC(=O)N[C@H](C(=O)N[C@H](c1ccc([C@@H](CO)N(CCC(C)(C)C)S(=O)(=O)c2ccc3ocnc3c2)s1)C(F)(F)F)C(c1ccccc1)c1ccccc1 [Example 96, N-[(1S)-1-(5-{(1R)-1-[(1,3-benzoxazol-5-ylsulfonyl)(3,3-dimethylbutyl)amino]-2-hydroxyethyl}thiophen-2-yl)-2,2,2-trifluoroethyl]-Nα-(methoxycarbonyl)-β-phenyl-L-phenylalaninamide] | 1.95
21 | COC(=O)N[C@H](C(=O)N[C@H](c1ccc([C@@H](CO)N(CCC(C)(C)C)S(=O)(=O)c2ccc(N)c(F)c2)s1)C(F)(F)F)C(c1ccccc1)c1ccccc1 [Example 97, N-[(1S)-1-{5-[(1R)-1-{[(4-amino-3-fluorophenyl)sulfonyl](3,3-dimethylbutyl)amino}-2-hydroxyethyl]thiophen-2-yl}-2,2,2-trifluoroethyl]-Nα-(methoxycarbonyl)-β-phenyl-L-phenylalaninamide] | 1.23
